# Read-outs that look alike come from different tables or passages of the source.
# Target: T1, recombinant human NaV1.8 stably transfected HEK cells (Homo sapiens, UniProt Q9Y5Y9)
# T1 construct: expressed in transfected cells; host or cells: HEK cells, stably transfected
# Assay: Compound profiling on NaV1.8, human NaV1.8 cell line, SyncroPatch384PE automated patch clamp assay (Example 102, first set of compounds, Table 16)
# Assay type: cell-based
# Details: human NaV1.8 HEK cells, Table 16 (first set of compounds)
# Method: Compound Profiling on NaV1.8—Human NaV1.8 Cell Line—SyncroPatch384PE Assay
# Compounds were tested on recombinant human NaV1.8 stably transfected HEK cells using the SyncroPatch384PE system, an automated patch clamp device. Cells were cultured at 37° C./5% CO2 in DMEM medium supplemented with GlutaMAX I, NEAA 1%, FBS 10% and seeded in T175 flasks. Cells were cultured at 30° C. one day prior to recording sodium currents. On the day of the recordings, cells were detached with 0.05% Trypsin-EDTA, resuspended in serum free DMEM medium and placed into the SyncroPatch384PE 6° C. pre-cooled cell hotel and shaken at 200 rpm. Intracellular solution (IC) contained, in mM: 10, CsCl; 110, CsF; 20, EGTA; 10, HEPES. Extracellular solution (EC) contained, in mM: 140, NaCl; 4, KCl; 5, Glucose; 10, HEPES; 2, CaCl2; 1, MgCl2. Washing solution contained, in mM: 40, NMDG; 100, NaCl; 4, KCl; 10, Glucose; 10, HEPES; 5, CaCl2; 1, MgCl2.
# Compounds were tested in triplicate in 0.1% DMSO and 0.030% Pluronic Acid. Compounds were diluted 1:3 in EC solution to create a 10-point concentration response curve, spanning a final concentration range from 20-0.001 μM in the assay plate. Each plate contained tetracaine and another tool compound as positive controls. Up to 8 compounds were tested on one plate. 250 μM tetracaine and 0.1% DMSO were used as high and low controls, respectively. Whole cell patch clamp recordings were conducted according to Nanion's standard procedure for SyncroPatch384PE®. Cells were held at a holding potential of −120 mV. A depolarization step to 10 mV for 30 ms was applied (P1 measurement), followed by a hyperpolarization step to −100 mV for 100 ms. An inactivation step at −40 mV for 10 sec was applied before stepping to −100 mV for 20 ms, followed by a step to 10 mV for 30 ms (P2 measurement) and then back to −100 mV for 30 ms. Sweep interval was 15 sec with a sampling rate of 10 kHz. Following establishment of the whole-cell configuration in EC, two washing steps with reference buffer were performed to stabilize the baseline. Compounds were then applied by the SynchroPatch into each well and the current was recorded for five minutes in EC, followed by application of tetracaine to achieve full block at the end of the experiment. The potency of the compounds was assessed on two read-outs, resting state block (P1 measurement) or inactivated state block (P2 measurement) to obtain IC50 values. Values were normalized to high (tetracaine) and low (DMSO) controls. The IC50 values are listed in Table 16 as follows: “A” represents an IC50 less than or equal to 20 nM, “B” represents an IC50 greater than 20 nM to less than or equal to 40 nM, “C” represents an IC50 greater than 40 nM to less than or equal to 200 nM, “D” represents an IC50 greater than 200 nM to less than or equal to 500 nM.
# [1] = inactivated state block (P2 measurement), read-out: P2IC50
# [2] = resting state block (P1 measurement), read-out: P1IC50
# T1 sequence (Q9Y5Y9 whole entry): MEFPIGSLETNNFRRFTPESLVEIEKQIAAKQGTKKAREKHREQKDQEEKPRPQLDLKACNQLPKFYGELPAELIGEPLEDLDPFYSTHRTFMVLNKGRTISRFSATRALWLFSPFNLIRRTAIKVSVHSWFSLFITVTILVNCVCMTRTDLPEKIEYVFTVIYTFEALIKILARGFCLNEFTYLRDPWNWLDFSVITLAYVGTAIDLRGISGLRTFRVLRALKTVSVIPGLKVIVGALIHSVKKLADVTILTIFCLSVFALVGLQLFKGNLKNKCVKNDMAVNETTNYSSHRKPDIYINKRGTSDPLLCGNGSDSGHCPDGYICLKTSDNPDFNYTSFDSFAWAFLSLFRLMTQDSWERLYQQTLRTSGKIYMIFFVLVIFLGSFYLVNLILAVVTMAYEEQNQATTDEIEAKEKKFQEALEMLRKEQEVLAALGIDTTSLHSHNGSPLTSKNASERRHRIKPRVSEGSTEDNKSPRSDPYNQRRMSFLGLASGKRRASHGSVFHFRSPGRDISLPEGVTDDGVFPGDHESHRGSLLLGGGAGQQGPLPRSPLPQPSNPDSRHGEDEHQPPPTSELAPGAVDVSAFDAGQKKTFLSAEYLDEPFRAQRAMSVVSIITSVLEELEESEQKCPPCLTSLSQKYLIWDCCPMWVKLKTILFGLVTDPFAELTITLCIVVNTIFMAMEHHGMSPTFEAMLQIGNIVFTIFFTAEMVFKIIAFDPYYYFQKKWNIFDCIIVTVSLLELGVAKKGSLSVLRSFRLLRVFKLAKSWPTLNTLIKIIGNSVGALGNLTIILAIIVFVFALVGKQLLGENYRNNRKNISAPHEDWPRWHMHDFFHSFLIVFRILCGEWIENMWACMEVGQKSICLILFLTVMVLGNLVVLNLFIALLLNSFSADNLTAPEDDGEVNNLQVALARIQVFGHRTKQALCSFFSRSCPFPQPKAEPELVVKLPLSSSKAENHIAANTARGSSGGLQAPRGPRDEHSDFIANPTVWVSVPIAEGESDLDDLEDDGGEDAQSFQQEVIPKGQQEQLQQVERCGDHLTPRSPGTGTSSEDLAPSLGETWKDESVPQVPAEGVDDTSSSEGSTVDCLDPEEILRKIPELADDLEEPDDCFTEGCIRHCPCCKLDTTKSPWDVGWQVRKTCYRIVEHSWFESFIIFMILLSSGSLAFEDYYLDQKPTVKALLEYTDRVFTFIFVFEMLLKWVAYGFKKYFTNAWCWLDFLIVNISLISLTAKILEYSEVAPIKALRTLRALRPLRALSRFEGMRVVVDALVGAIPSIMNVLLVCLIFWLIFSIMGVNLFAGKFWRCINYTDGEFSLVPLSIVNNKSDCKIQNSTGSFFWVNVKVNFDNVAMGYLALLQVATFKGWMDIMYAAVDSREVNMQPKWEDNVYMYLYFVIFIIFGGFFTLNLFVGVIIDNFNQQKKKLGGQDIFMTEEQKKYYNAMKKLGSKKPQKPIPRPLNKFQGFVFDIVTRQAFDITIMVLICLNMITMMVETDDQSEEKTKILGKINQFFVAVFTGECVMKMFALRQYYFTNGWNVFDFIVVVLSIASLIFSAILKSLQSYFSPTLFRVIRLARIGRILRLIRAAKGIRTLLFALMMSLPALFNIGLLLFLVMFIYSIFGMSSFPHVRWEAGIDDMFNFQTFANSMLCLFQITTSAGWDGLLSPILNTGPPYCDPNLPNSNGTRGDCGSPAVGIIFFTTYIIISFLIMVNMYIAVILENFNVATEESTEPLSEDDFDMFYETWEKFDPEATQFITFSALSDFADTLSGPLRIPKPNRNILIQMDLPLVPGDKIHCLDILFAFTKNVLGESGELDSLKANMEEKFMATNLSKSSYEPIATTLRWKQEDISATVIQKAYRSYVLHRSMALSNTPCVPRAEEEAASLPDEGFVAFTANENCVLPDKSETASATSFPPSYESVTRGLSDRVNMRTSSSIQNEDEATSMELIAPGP
Structure (SMILES),IC50 [1] [nM],IC50 [2] [nM]
Cc1c(C(F)(F)F)nnc(Oc2ccc(OC(C)C)c(F)c2F)c1C(=O)Nc1ccnnc1 [Compound 1412],≤ 20,≤ 20
CC(C#N)Oc1cc(F)c(Oc2ncc(C(F)(F)F)cc2C(=O)Nc2cccc(S(C)(=N)=O)c2)cc1F (centres unmarked) [Compound 1689],40 to 200,40 to 200
"COc1cc(F)ccc1Oc1nnc(C(F)(F)F)c(OC)c1C(=O)Nc1cccc([S@@](C)(=N)=O)c1 [Compound 1517, (S)-3-(4-fluoro-2-methoxyphenoxy)-5-methoxy-N-(3-(S-methylsulfonimidoyl)phenyl)-6-(trifluoromethyl)pyridazine-4-carboxamide]",20 to 40,≤ 20
CS(=O)(=O)c1cccc(NC(=O)c2cc(C(F)(F)F)cnc2Oc2ccc(OC(F)(F)F)cc2F)c1 [Compound 1661],≤ 20,≤ 20
"COc1cc(C#N)ccc1Oc1nnc(C(F)(F)F)c(C)c1C(=O)Nc1cccc(C(=O)NS(C)(=O)=O)c1 [Compound 1542, 3-(4-cyano-2-methoxy-phenoxy)-5-methyl-N-[3-(methylsulfonylcarbamoyl)phenyl]-6-(trifluoromethyl)pyridazine-4-carboxamide]",200 to 500,200 to 500
"Cc1nc(OC2CCC2)ccc1Oc1nnc(C(F)(F)F)c(C)c1C(=O)Nc1cccc(S(C)(=N)=O)c1 (single isomer, unassigned) [Compound 1499, 3-((6-cyclobutoxy-2-methylpyridin-3-yl)oxy)-5-methyl-N-(3-(S-methylsulfonimidoyl)phenyl)-6-(trifluoromethyl)pyridazine-4-carboxamide]",40 to 200,40 to 200
Cc1cc(F)ccc1Oc1ncc(C#N)cc1C(=O)Nc1cccc(S(C)(=N)=O)c1 (centres unmarked) [Compound 1578],200 to 500,200 to 500
CS(=O)(=O)c1cccc(NC(=O)c2cc(C(F)(F)F)cnc2OC2CCC(F)(F)CC2)c1 [Compound 1660],40 to 200,40 to 200
Cc1nn(C)c(C)c1Oc1ncc(C(F)(F)F)cc1C(=O)Nc1cccc(S(C)(=O)=O)c1 [Compound 1611],200 to 500,200 to 500
COc1ncc(Oc2ncc(C(F)(F)F)cc2C(=O)Nc2cccc(C(N)=O)c2)cc1F [Compound 1698],200 to 500,200 to 500
COc1cc(Cl)ccc1Oc1nnc(C(F)(F)F)c(C)c1C(=O)Nc1ccc(C(N)=O)cc1 [Compound 1403],20 to 40,20 to 40
"COc1cc(C#N)ccc1Oc1nnc(C(F)(F)F)c(C)c1C(=O)Nc1cnc(C(N)=O)s1 [Compound 1538, 5-[[3-(4-cyano-2-methoxy-phenoxy)-5-methyl-6-(trifluoromethyl)pyridazine-4-carbonyl]amino]thiazole-2-carboxamide]",40 to 200,40 to 200
"Cc1c(C(F)(F)F)nnc(Oc2ccc(OC3CCC3)c(F)c2F)c1C(=O)Nc1cccc(S(C)(=N)=O)c1 (centres unmarked) [Compound 1492, 3-[4-(cyclobutoxy)-2,3-difluoro-phenoxy]-5-methyl-N-[3-(methylsulfonimidoyl)phenyl]-6-(trifluoromethyl)pyridazine-4-carboxamide]",≤ 20,≤ 20
"Cc1nc(OC2CCC2)ccc1Oc1nnc(C(F)(F)F)c(C)c1C(=O)Nc1cccc(S(C)(=N)=O)c1 (centres unmarked) [Compound 1498, 3-[(6-cyclobutoxy-2-methylpyridin-3-yl)oxy]-N-{3-[imino(methyl)oxo-λ^6-sulfanyl]phenyl}-5-methyl-6-(trifluoromethyl)pyridazine-4-carboxamide]",40 to 200,40 to 200
"COc1ccc(Oc2nnc(C(F)(F)F)c(C)c2C(=O)Nc2cccc(S(C)(=N)=O)c2)c(C)c1F (centres unmarked) [Compound 1504, 3-(3-fluoro-4-methoxy-2-methylphenoxy)-N-{3-[imino(methyl)oxo-λ^6-sulfanyl]phenyl}-5-methyl-6-(trifluoromethyl)pyridazine-4-carboxamide]",≤ 20,≤ 20
COc1cc(C#N)ccc1Oc1nccc(C(F)(F)F)c1C(=O)Nc1cccc(S(C)(=N)=O)c1 (centres unmarked) [Compound 1653],40 to 200,40 to 200

# The next lines start with the values.
IC50 [1] [nM],IC50 [2] [nM],Structure (SMILES)
200 to 500,200 to 500,"CS(=O)(=O)c1cccc(NC(=O)c2cc(C(F)(F)F)cnc2Oc2cccc(S(C)(=O)=O)c2)c1 [Compound 1718, 2-(3-methylsulfonylphenoxy)-N-(3-methylsulfonylphenyl)-5-(trifluoromethyl)pyridine-3-carboxamide]"
20 to 40,20 to 40,COc1cc(F)c(F)cc1Oc1ncc(C(F)(F)F)cc1C(=O)Nc1cccc(S(C)(=N)=O)c1 (centres unmarked) [Compound 1617]
200 to 500,200 to 500,CSc1cccc(NC(=O)c2cc(C#N)cnc2Oc2ccc(F)cc2C)c1 [Compound 1579]
20 to 40,20 to 40,"COc1cc(C#N)ccc1Oc1nnc(-c2cncn2C)c(C)c1C(=O)Nc1cccc(S(C)(=N)=O)c1 (centres unmarked) [Compound 1447, 3-(4-cyano-2-methoxy-phenoxy)-5-methyl-6-(3-methylimidazol-4-yl)-N-[3-(methylsulfonimidoyl)phenyl]pyridazine-4-carboxamide]"
20 to 40,20 to 40,Cc1nc(C#N)ccc1Oc1ncc(C(F)(F)F)cc1C(=O)Nc1cccc(S(C)(=N)=O)c1 (centres unmarked) [Compound 1701]
200 to 500,200 to 500,CS(=N)(=O)c1cccc(NC(=O)c2cc(C(F)(F)F)cnc2OC2CC3(C2)CC(F)(F)C3)c1 (centres unmarked) [Compound 1632]
40 to 200,40 to 200,"Cc1nc(F)ccc1Oc1ncc(C(F)(F)F)cc1C(=O)Nc1cccc([S@@](C)(=N)=O)c1 (single isomer, unassigned) [Compound 1594]"
200 to 500,200 to 500,NC(=O)c1cccc(NC(=O)c2cc(C(F)(F)F)cnc2Oc2cnc(C(F)(F)F)nc2)c1 [Compound 1695]
40 to 200,40 to 200,"COc1cc(C#N)ccc1Oc1nnc(C2=CCOC2)c(C)c1C(=O)Nc1cccc(S(C)(=N)=O)c1 (centres unmarked) [Compound 1556, 3-(4-cyano-2-methoxy-phenoxy)-6-(2,5-dihydrofuran-3-yl)-5-methyl-N-[3-(methylsulfonimidoyl)phenyl]pyridazine-4-carboxamide]"
200 to 500,200 to 500,CCOC(=O)c1cc(NC(=O)c2c(Oc3ccc(F)cc3C)nnc(C(F)(F)F)c2C)cc(S(C)(=O)=O)c1 [Compound 1429]
≤ 20,≤ 20,"Cc1c(Oc2nnc(C(F)(F)F)c(C)c2C(=O)Nc2cccc(S(C)(=N)=O)c2)ccc(Cl)c1F (single isomer, unassigned) [Compound 1487, 3-(4-chloro-3-fluoro-2-methyl-phenoxy)-5-methyl-N-[3-(methylsulfonimidoyl)phenyl]-6-(trifluoromethyl)pyridazine-4-carboxamide]"
200 to 500,200 to 500,"COCCNC(=O)c1cccc(NC(=O)c2c(Oc3ccc(C#N)cc3OC)nnc(C(F)(F)F)c2C)c1 [Compound 1443, 3-(4-cyano-2-methoxy-phenoxy)-N-[3-(2-methoxyethylcarbamoyl)phenyl]-5-methyl-6-(trifluoromethyl)pyridazine-4-carboxamide]"
≤ 20,≤ 20,"Cc1c(C(F)(F)F)nnc(Oc2ccc(OC(F)F)c(F)c2F)c1C(=O)Nc1cccc(S(C)(=N)=O)c1 (single isomer, unassigned) [Compound 1511, 3-[4-(difluoromethoxy)-2,3-difluorophenoxy]-N-{3-[imino(methyl)oxo-λ^6-sulfanyl]phenyl}-5-methyl-6-(trifluoromethyl)pyridazine-4-carboxamide]"
≤ 20,≤ 20,"Cc1cc(F)ccc1Oc1ncc(Cl)c(C)c1C(=O)Nc1cccc(S(C)(=N)=O)c1 (centres unmarked) [Compound 1558, 5-chloro-2-(4-fluoro-2-methylphenoxy)-4-methyl-N-(3-(S-methylsulfonimidoyl)phenyl)nicotinamide]"
≤ 20,≤ 20,CS(=N)(=O)c1cccc(NC(=O)c2cc(C(F)(F)F)cnc2Oc2ccc(Br)cc2C2CC2)c1 (centres unmarked) [Compound 1648]

# Reference: patent US20240336574A1 (LATIGO BIOTHERAPEUTICS, INC., priority 2021, published 2024)
